Legend:
[1] = system: E. coli S30 extract translation system; format: biochemical; conditions: 5 μM, luciferase mRNA, 37°C, 30 min
[2] = system: ribosome; test: Toe-printing analysis; format: biochemical
[3] = system: VatB acetyltransferase; conditions: cited from earlier work
[4] = system: peptidyl transferase reaction; conditions: polyU-guided in vitro translation system; cited from earlier work
[5] = system: ribosome; conditions: PURExpress, osmC mRNA; 50 μM; worded as known, no reference given; cited from earlier work
[6] = system: ribosome; conditions: compared with MADU on osmC mRNA; cited from earlier work
[7] = system: 23S rRNA mutation A2503G; conditions: cited from earlier work

## CC1=C\[C@@H](O)C[C@@H](O)Cc2nc(co2)C(=O)N[C@H](C)C(=O)O[C@H](C(C)C)[C@H](C)/C=C/C(=O)NC\C=C\1 [MADU, madumycin II]
[1]
  Reduction of the efficiency of protein synthesis: > 100 fold
[2]; PURExpress cell-free system, osmC mRNA, 0.5, 5 and 50 μM MADU
  Ribosome stalling on osmC mRNA: dose-dependent ribosome stalling at the start codon
[2]; PURExpress, 5 µM MADU, mutated osmC mRNAs
  Progression to second codon, Gly vs Ile second codon: noticeably more ribosomes progressing to the second codon in the case of glycine as compared with the isoleucine
[3]
  Effect of VatB acetylation of C12-hydroxyl on activity: renders the drug inactive

## CC1=C\[C@@H](O)CC(=O)Cc2nc(co2)C(=O)N2CCC=C2C(=O)O[C@H](C(C)C)[C@H](C)/C=C/C(=O)NC\C=C\1 [virginiamycin M]
[4]
  Effect on peptidyl transferase reaction: specifically inhibits the peptidyl transferase reaction

## C=C(NC(=O)C(=C)NC(=O)c1csc(C2=N[C@@H]3c4csc(n4)[C@H]4NC(=O)c5csc(n5)[C@H]([C@](C)(O)[C@@H](C)O)NC(=O)[C@H]5CSC(=N5)/C(=C/C)NC(=O)[C@H]([C@@H](C)O)NC(=O)c5csc(n5)[C@]3(CC2)NC(=O)[C@H](C)NC(=O)C(=C)NC(=O)[C@H](C)NC(=O)[C@H]([C@@H](C)CC)N[C@@H]2C=Cc3c([C@H](C)O)cc(nc3[C@H]2O)C(=O)O[C@@H]4C)n1)C(N)=O [Thiostrepton, thiostrepton]
[5]
  Ribosome stalling by positive control (first codon): stall ribosomes at the first codon

## CC1=C\[C@@H](O)CC(=O)Cc2nc(co2)C(=O)N2CCC[C@@H]2C(=O)O[C@H](C(C)C)[C@H](C)/C=C/C(=O)NC\C=C\1 [pristinamycin IIB]
[6]
  Ribosome stalling in toe-printing: ribosome stalling at the start codon

## O=C(N[C@H](CO)[C@H](O)c1ccc([N+](=O)[O-])cc1)C(Cl)Cl [chloramphenicol]
[7]
  Resistance conferred by A2503G: confers resistance

Reference: PMC5499580 (Nucleic Acids Research, 2017)
